Assay [1] can be described thus: Luminescence restoration on adding excess macrocyclic receptor 3 to quantum dots and quencher 1. It counts as binding. The conditions noted are these: quantum dots 1.5 μM, 1 4.1 μM, 3 21 μM, pH=7.8, 20° C. How it is done: (§1) The emission spectra (λEx=350 nm) of the same solution were recorded before (b) and after the consecutive addition of 1 (c, 4.1 μM) and 3 (d, 21 μM). Also shown is a Stern-Volmer plot (e) of hydrophilic CdSe—ZnS core-shell quantum dots (1.5 μM, sodium phosphate buffer, pH=7.8, 20° C., λEx=350 nm) upon addition of increasing amounts of 1.
The change imposed on the luminescence of the hydrophilic quantum dots by the quencher 1 can be reversed with the addition of an excess of cucurbituril (3 in FIG. 3). Indeed, this particular macrocyclic receptor is known to bind bipyridinium dications with high association constants in aqueous solutions.^36-39 Consistently, the emission spectrum (d in FIG. 2) recorded in the presence of an excess of 3 relative to 1 closely resembles the one recorded before the addition of 1 (b). The infrared spectra recorded before (b in FIG. 4) and after (c in FIG. 4) treatment of the CdSe—ZnS core-shell quantum dots with mercaptoacetic acid and potassium hydroxide show the disappearance of the [C—H] stretching vibrations at 2800 cm^−1 to […] (a) for hydrophobic ligands and the appearance of the [C═O] stretching vibrations at 1300 cm^−1 to 1700 cm^−1 (d) for the hydrophilic ones. […] In principle, the very same mechanism can be adapted to signal receptor-ligand interactions with changes in luminescence. […]

Assay [2] in a line: Stern-Volmer quenching of quantum dot luminescence by bipyridinium quenchers. It counts as binding. The conditions noted are these: for Stern-Volmer constant: linear (static) region of plot, quantum dots 1.5 μM, sodium phosphate buffer, pH=7.8, 20° C., λEx=350 nm. How it is done:
as §1
(§2) Also shown is a Stern-Volmer plot (d) of hydrophilic CdSe—ZnS core-shell quantum dots (1.5 μM, sodium phosphate buffer, pH=7.8, 20° C., λEx=350 nm) after addition of increasing amounts of 2.
Indeed, bipyridinium dications are known to accept electrons from excited CdSe and CdSe—ZnS core-shell quantum dots, quenching their luminescence.36-37 The corresponding Stern-Volmer plot (e in FIG. 2) deviated from linearity at quencher concentrations greater than about 2.5 μM. […] These observations are consistent with the adsorbance of the dicationic quencher on the surface of the hydrophilic quantum dots as a result of electrostatic interactions with their anionic carboxylate groups.
In order to test the potential of our operating principles to signal receptor-ligand interactions, we designed a compound (2 in FIG. 3) integrating a bipyridinium quencher and a biotin ligand within the same molecular skeleton and prepared this molecule in two synthetic steps (see FIG. 6). Once again, the luminescence of the hydrophilic quantum dots decreases upon exposure to 2 (a and b in FIG. 7) (the addition of either 1 or 2 to a solution of the quantum dots has no influence on the visible region of the absorption spectrum). […]
Methods. […] Infrared absorption spectra were recorded with a Perkin-Elmer Spectrum One Fourier transform spectrometer. Visible absorption spectra were recorded with a Varian Cary 100 Bio spectrometer, using quartz cells with a path length of 0.5 cm. Emission spectra were recorded with a Varian Cary Eclipse spectrometer in aerated solutions. Fast atom bombardment mass spectra (FABMS) were recorded with a VG Mass Lab Trio-2 in a 3-nitrobenzyl alcohol matrix. […]

Another assay addresses T1, bovine serum albumin (Bos taurus, UniProt P02769).
T1 construct: purchased
Briefly: Specificity control: bovine serum albumin added to quantum dots and 2. Conditions: quantum dots 1.5 μM, 2 4.1 μM, bovine serum albumin 7.4 μM, pH=7.8, 20° C. It counts as binding. An excerpt:
(§3) The addition of increasing amounts of streptavidin to a mixture of the hydrophilic quantum dots and 2 leads to a luminescence enhancement (c in FIG. 7). The addition of 3, streptavidin or bovine serum albumin to a solution of the hydrophilic quantum dots has no influence on the emission spectrum in the absence of bipyridinium quenchers. Instead, the addition of bovine serum albumin has no influence of the emission spectrum under otherwise identical conditions (FIG. 8). […] The luminescence increases only by 30% after the association of 2 and streptavidin, while it grows by 80% after the interaction of 1 and 3. […] Presumably, an adjustment in the length of the aliphatic spacer connecting the quencher to the ligand in 2 can be invoked to improve the luminescence enhancement upon streptavidin binding.
Methods. […] Infrared absorption spectra were recorded with a Perkin-Elmer Spectrum One Fourier transform spectrometer. Visible absorption spectra were recorded with a Varian Cary 100 Bio spectrometer, using quartz cells with a path length of 0.5 cm. Emission spectra were recorded with a Varian Cary Eclipse spectrometer in aerated solutions. Fast atom bombardment mass spectra (FABMS) were recorded with a VG Mass Lab Trio-2 in a 3-nitrobenzyl alcohol matrix. Nuclear magnetic resonance (NMR) spectra were recorded with Bruker Avance 400 and 500 spectrometers.

A further assay concerns the target T2, streptavidin (Streptomyces avidinii, UniProt P22629).
T2 construct: purchased
Briefly: Luminescence enhancement on adding streptavidin to quantum dots and quencher-biotin 2. It is filed as binding. The conditions noted are these: quantum dots 1.5 μM, 2 4.1 μM, streptavidin 21 μM (large excess), pH=7.8, 20° C. How it is done:
as §2, §3
Methods. […] Infrared absorption spectra were recorded with a Perkin-Elmer Spectrum One Fourier transform spectrometer. Visible absorption spectra were recorded with a Varian Cary 100 Bio spectrometer, using quartz cells with a path length of 0.5 cm. Emission spectra were recorded with a Varian Cary Eclipse spectrometer in aerated solutions. […]

Assay [3] is described as follows: Control: receptor added to quantum dots without bipyridinium quenchers. The conditions noted are these: in the absence of bipyridinium quenchers.

T1 sequence (P02769 25-607): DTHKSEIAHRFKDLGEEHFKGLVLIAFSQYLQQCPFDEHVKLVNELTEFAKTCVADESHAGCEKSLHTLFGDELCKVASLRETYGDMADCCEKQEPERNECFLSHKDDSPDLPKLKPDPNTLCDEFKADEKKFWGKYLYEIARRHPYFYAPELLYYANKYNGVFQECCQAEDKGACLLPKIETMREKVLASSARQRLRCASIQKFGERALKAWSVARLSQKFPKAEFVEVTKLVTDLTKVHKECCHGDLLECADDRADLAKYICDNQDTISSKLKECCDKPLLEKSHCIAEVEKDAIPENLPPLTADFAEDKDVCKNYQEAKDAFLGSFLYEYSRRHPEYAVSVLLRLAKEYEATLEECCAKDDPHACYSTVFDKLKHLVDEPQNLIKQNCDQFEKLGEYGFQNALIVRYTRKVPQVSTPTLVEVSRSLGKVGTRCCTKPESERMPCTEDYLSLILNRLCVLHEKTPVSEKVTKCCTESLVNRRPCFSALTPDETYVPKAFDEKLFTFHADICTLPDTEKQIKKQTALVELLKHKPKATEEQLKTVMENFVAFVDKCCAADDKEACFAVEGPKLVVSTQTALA
T2 sequence (P22629 25-183, species assumed): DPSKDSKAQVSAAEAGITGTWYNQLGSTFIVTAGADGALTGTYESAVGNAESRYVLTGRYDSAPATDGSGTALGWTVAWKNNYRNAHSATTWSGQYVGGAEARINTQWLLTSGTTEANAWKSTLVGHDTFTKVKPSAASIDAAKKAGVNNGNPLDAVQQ

With `C[n+]1ccc(-c2cc[n+](C)cc2)cc1` [compound 1, methyl viologen, reference compound], in assay [1], the “luminescence increase after interaction with 3” value stood at 80%. Also, the Stern-Volmer constant result in assay [2] is on record as “about 0.45 μM^−1”. For the molecule `C[n+]1ccc(-c2cc[n+](CCCOCCCCCC3SCC4NC(=O)NC43)cc2)cc1.[I-].[I-]` (stereo not drawn) [compound 2, 1-Methyl-1′-(3-(5-(2-Oxohexahydrothieno[3,4-d]imidazol-6-yl)-pentanoxy)-propyl)-4,4′-Bipyridinium Bisiodide], at bovine serum albumin, the “effect of bovine serum albumin on the emission spectrum” value is recorded as “no influence”. Moreover, at streptavidin, the “luminescence increase after association with streptavidin” value was 30%. Besides, the Stern-Volmer constant entry in assay [2] was “about 0.22 μM^−1”. The “decrease in the Stern-Volmer constant relative to 1” value in assay [2] (same conditions as the Stern-Volmer plots) is given as “about 0.23 μM^−1”. Take `O=C1N2CN3C(=O)N4CN5C(=O)N6CN7C(=O)N8CN9C(=O)N%10CN%11C(=O)N%12CN1C1C2N2CN%13C(=O)N(CN%14C(=O)N(CN%15C(=O)N(CN%16C(=O)N(CN%17C(=O)N(CN1C2=O)C%12C%11%17)C%10C9%16)C8C7%15)C6C5%14)C4C3%13` (stereo not drawn) [compound 3, cucurbituril, reference compound]: the “effect on the emission spectrum of the quantum dots” value in assay [3] is “no influence”. Still for that read-out and setting: with “bovine serum albumin: control protein that does not bind biotin” the entry was “no influence”; with “streptavidin: protein receptor that binds the biotin ligand of 2”, “no influence”.
